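All cell lines were grown in 96-well plates and treated with compound for 48 hours. GI50 = concentration required for 50% inhibition of growth. The concentration for full growth arrest is given as TGI.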
Key:
Assay in all cases: inhibition of tumour cell growth, NCI panel, 48 h
CCRF-CEM leukemia = test system: CCRF-CEM leukemia
SK-MEL-28 melanoma = test system: SK-MEL-28 melanoma
SK-MEL-5 melanoma = test system: SK-MEL-5 melanoma
OVCAR-3 ovarian = test system: OVCAR-3 ovarian
COLO 205 colon = test system: COLO 205 colon
OVCAR-5 ovarian = test system: OVCAR-5 ovarian
LOX IMVI melanoma = test system: LOX IMVI melanoma
NCI/ADR-RES ovarian = test system: NCI/ADR-RES ovarian
SF-295 CNS = test system: SF-295 CNS
MDA-MB-435 = test system: MDA-MB-435

Row | SMILES | GI50 (CCRF-CEM leukemia) [µM] | TGI (CCRF-CEM leukemia) [µM] | GI50 (SK-MEL-28 melanoma) [µM] | TGI (SK-MEL-28 melanoma) [µM] | GI50 (SK-MEL-5 melanoma) [µM] | TGI (SK-MEL-5 melanoma) [µM] | GI50 (OVCAR-3 ovarian) [µM] | TGI (OVCAR-3 ovarian) [µM] | GI50 (COLO 205 colon) [µM] | TGI (COLO 205 colon) [µM] | GI50 (OVCAR-5 ovarian) [µM] | TGI (OVCAR-5 ovarian) [µM] | GI50 (LOX IMVI melanoma) [µM] | TGI (LOX IMVI melanoma) [µM] | GI50 (NCI/ADR-RES ovarian) [µM] | TGI (NCI/ADR-RES ovarian) [µM] | GI50 (SF-295 CNS) [µM] | TGI (SF-295 CNS) [µM] | GI50 (MDA-MB-435) [µM] | TGI (MDA-MB-435) [µM]
1 | CC(=O)c1c(C)[nH]c(-c2nc3ccc(N4CCN(C)CC4)cc3[nH]2)c1-c1ccc(N(C)C)cc1 | 1.16 | > 37.7 | 2.47 | 18.7 | 1.19 | 4.59 | 1.17 | 17 | 0.292 | 14 | 1.8 | > 65 | 0.359 | 1.85 | 0.916 | > 100 | 1.55 | 14.8 | 0.554 | 13.7
2 | Clc1ccc(-c2c3c(nn2-c2ccccn2)CCc2ccccc2-3)cc1Cl | > 100 | > 100 | > 100 | > 100 | > 100 | > 100 | > 100 | > 100 | > 100 | > 100 | > 100 | > 100 | > 100 | > 100 | > 100 | > 100 | 95.2 | > 100 | > 100 | > 100
3 | O=C(Cc1ccc(F)c(F)c1)Nc1cc(C2(C(F)(F)F)CC2)nn1Cc1ccccc1 | 4.79 | > 15 | 4.81 | > 15 | 2.77 | 5.4 | 3.85 | 14.5 | 2.7 | 6.34 | 4 | > 15 | 4.9 | > 15 | 3.98 | > 15 | 3.77 | 14.7 | 3.67 | 11.4
4 | CCN(CC)CCCNCc1cc(-c2ccccc2)nc2ccccc12 | 2.22 | > 100 | 10.2 | 22.4 | 5.49 | 18.7 | 4.13 | > 100 | 15.8 | 31.3 | 37.9 | > 100 | 2.32 | 11.4 | 2.35 | 6.51 | 16.5 | 44.7 | 4.47 | 24.3
5 | NCCCCCCCn1c2c(c3ccccc3c1=O)C(=O)c1ccccc1-2 | 0.648 | 2.19 | 1.75 | 3.23 | 1.45 | 2.77 | 1.86 | 4.1 | 2.07 | 5.15 | 1.7 | 3.97 | 1.33 | 2.76 | 2.56 | 7.87 | 1.74 | 4.28 | 1.98 | 4.06
6 | C#CCSc1cc(Cl)c(C)cc1S(=O)(=O)Nc1nc2ccccc2o1 | 26.2 | > 100 | 54.7 | > 100 | 20.5 | 40.2 | 31.9 | 76.9 | 26 | 71.7 | 51.6 | > 100 | 36 | > 100 | 42.9 | > 100 | 25.5 | 61.2 | 27.8 | 62.9

Reference: PubChem BioAssay (NCI)
